Measurements from patent US10907208B2, “Method for screening agents promoting skin barrier function and method for evaluating skin barrier function taking epidermal serine racemase and/or D-serine level as indicator” (Shiseido Company, Ltd, priority 2014, dated 2021).

Assays:
Assay type in all cases: cell-based, human
repetin (RPTN) gene = test: Real-time PCR gene expression in three-dimension culture of keratinocytes (3D skin model), repetin; settings: D-Ser 100 μM, 7 days, corrected by MRPL19, FIG. 7
Protocol: (§1) Human normal keratinocytes were seeded on polycarbonate insert (Millipore) having 12 mm of diameter and 0.4 μm of bore diameter. Then, Human normal keratinocytes were cultured for three days under 5% CO2 atmosphere at 37° C. by adding Cnt-Prime, Epithelial Culture Medium (CELLnTEC Advanced Cell Systems AG) inside and outside of the insert, followed by being cultured for 24 hours by substituting with Cnt-prime 3D Barrier medium (CELLnTEC Advanced Cell Systems AG). […]
(§2) Total RNA extracted by means of Trizol reagent (Invitrogen) was subjected to NanoDrop 1000 Spectrophotometer (Thermo Fisher Scientific) to determine RNA concentration, and then was converted to cDNA by using SuperScriptVIL0 (Invitrogen). Relative expression amount of genes of fillagrin (FLG), cornuline (CRNN) and repetin (RPTN), and mitochondrial ribosome protein L19 (MRPL19) which was used as an internal control gene was determined. […]
(§3) Relative expression amount of the target gene of each group was determined by means of correction using the expression amount of mitochondrial ribosome protein L19 gene (MRPL19) as an internal control (FIGS. 5-7). […]

cornuline (CRNN) gene = test: Real-time PCR gene expression in three-dimension culture of keratinocytes (3D skin model), cornuline; settings: D-Ser 100 μM, 7 days, corrected by MRPL19, FIG. 6
Protocol: as §1, §2, §3

fillagrin (FLG) gene = test: Real-time PCR gene expression in three-dimension culture of keratinocytes (3D skin model), fillagrin; settings: D-Ser 100 μM, 7 days, corrected by MRPL19, FIG. 5
Protocol: as §1, §2, §3

With `N[C@H](CO)C(=O)O` [D-serine] the “expression level of repetin gene” value (repetin (RPTN) gene) was “increases”, the “expression level of repetin gene” value (repetin (RPTN) gene; listed as D-Ser) was “increased” and the “expression level of cornuline gene” value (cornuline (CRNN) gene) was “increases”. The “expression level of cornuline gene” value (cornuline (CRNN) gene; listed as D-Ser) was “increased”, the “expression level of fillagrin gene” value (fillagrin (FLG) gene) was “increases” and the “expression level of fillagrin gene” value (fillagrin (FLG) gene; listed as D-Ser) was “increased”.
